Entries after “also recorded” stand apart in the source; their conditions may differ.
Legend:
[1] = test system: human dermal fibroblasts (HDFs); experiment: Cell viability (MTT) assay in human dermal fibroblasts; format: cell-based; settings: HDFs, 24 hours
Protocol: FIG. 8A is a graph showing the effects of TIM1 and a solvent thereof, DMSO, on the viability of human dermal fibroblasts, in which cells (10^4/well) were treated with DMSO at 3 different concentrations (0.5, 1, and 2%) and TIM1 at 8 different concentrations (1, 3.125, 6.25, 12.5, 25, 50, 100, and 200 μM) for 24 hours, and the cell viability was monitored by an MTT assay. FIG. 8B is a graph showing the effect of TIM1 on the viability of a mouse fibrosarcoma cell line [L929 (1.5×10^4/well)] under the same conditions as in FIG. 8A. All experiments were independently performed 4 times, and mean±SEM of the independent experiments was calculated using a two-tailed paired Student's t-test (*P<0.05).
In order to measure cell viability, a colorimetric […] (MTT) assay (Sigma-Aldrich Co.) was performed. HDFs were seeded at a density of 10^4/well in 96-well plates (BD Biosciences, San Jose, CA, USA), grown overnight, and then treated with a test compound at various concentrations for 24 hours. The next day, the medium was replaced with a medium (100 μl/well) containing a 10% MTT solution, followed by incubated at 37° C. for 3 hours. This solution was replaced with DMSO (100 μl/well), and the plates were incubated at room temperature for 30 minutes. Thereafter, the plates were read at a wavelength of 540 nm using a microplate spectrophotometer system (Molecular Devices, Silicon Valley, California).

[2] = target: T1, recombinant mouse TNF-α (rmTNF-α) (Mus musculus, UniProt P06804); experiment: Cell death attenuation assay, act-D-sensitized L929 cells with rmTNF-α; format: cell-based; settings: act-D-sensitized L929, rmTNF-α 1 ng/ml, 1-100 μM
T1 construct: purchased Miltenyi Biotec
T1 sequence (P06804 80-235 limits assumed): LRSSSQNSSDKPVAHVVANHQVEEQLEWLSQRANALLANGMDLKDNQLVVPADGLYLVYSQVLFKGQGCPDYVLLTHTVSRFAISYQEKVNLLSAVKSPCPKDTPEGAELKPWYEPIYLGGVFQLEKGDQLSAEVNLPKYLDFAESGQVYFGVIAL
Protocol: HDFs (10^4/well) and L929 cell lines (1.5×10^4/well) were seeded in 96-well plates and grown overnight under appropriate conditions. The next day, HDFs and L929 cells were pretreated with 1 μg/ml act-D and 0.1 μg/ml act-D, respectively, followed by incubated for 30 minutes. Thereafter, a 1-hour-preincubated mixture of 10 ng/ml rhTNFα with test compounds or 1 ng/ml rmTNFα with test compounds, was applied to HDFs and L929 cells, respectively. The cells were incubated for 24 hours post-treatment, and survival was measured by the MTT assay. Cell viability was calculated with reference to the no-treatment control group. The obtained values were normalized with respect to the act-D treatment group and then used to calculate death attenuation (%) rate using the following equation: […]

[3] = target: T2, recombinant human TNF-α (rhTNF-α) (Homo sapiens, UniProt P01375); experiment: TNF-α-mediated hIL-8 secretion in HDFs (ELISA); format: cell-based
T2 construct: purchased Miltenyi Biotec
Protocol: (§1) HDFs were seeded at a density of 10^4/well in a 96-well plate (BD Biosciences) and grown overnight. The cells were treated for 24 hours with a 1-hour-pre-incubated mixture of rhTNF-α and test compounds. IL-8 secretion was assessed by a human IL-8 uncoated ELISA kit (eBioscience, Inc., San Diego, CA, USA), and IL-6 secretion level was assessed by a human IL-6 ELISA MAX™ Deluxe kit (BioLegend, San Diego, CA, USA). The microtiter plates were then analyzed at an appropriate wavelength using a microplate spectrophotometer system (Molecular Devices, Silicon Valley, California).

[4] = target: T2, recombinant human TNF-α (rhTNF-α); experiment: TNF-α-mediated hIL-6 secretion in HDFs (ELISA); format: cell-based
Protocol: as §1

TNF-α/TNFR1 interface = TNF-α/TNFR1 interface (Homo sapiens, UniProt P01375); settings: target TNF-α/TNFR1 interface, literature; cited from earlier work
[5] = test system: collagen-induced polyarthritis (CIA); experiment: Mouse model of collagen-induced polyarthritis (CIA), oral TIM1c; format: in vivo
Text: FIG. 6B is a graph showing body weight, FIG. 6C is a graph showing a squeaking number (the value 0 indicating no sign of pain), FIG. 6D is a graph showing an increase in paw volume, FIG. 6E is a graph showing an arthritis index, that is, the severity of mouse limb arthritis. The number of arthritic limbs was quantified, and each limb was assigned a severity score of 0-4, the data representing the number of arthritic limbs per arthritic mouse and the mean severity score of arthritis in each limb, black arrows representing the start date of drug administration, NOR, n=4; CIA, n=4; TIM1c_2 mg/ml, n=4; TIM1c_20 mg/ml, n=5, values being represented as means±SEM. #p<0.05, ##p<0.01, ###p<0.001 vs. NOR group and p<0.05, **p<0.01, ***p<0.001 vs. CIA group (two-way ANOVA followed by Bonferroni correction).
Male DBA/1J mice (20-23 g) were purchased from Central Lab. Animal Inc. (Seoul, Korea). Animals were housed in a limited-access rodent facility with a maximum of 4 animals per polycarbonate cage, with free access to pelleted food and water. The temperature was maintained at 22-24° C. with a 12/12-hour light/dark cycle. Animals were acclimatized for at least 1 week prior to starting the experiment. The number of animals used per experiment or test and the potential suffering were minimized. All methods were approved by the Animal Care and Use Committee of Kyung-Hee University, Korea. All procedures were executed in accordance to the Guide for the Care and Use of Laboratory Animals by the Korea National Institute of Health.
Male DBA/1J mice (6-week-old) were subcutaneously injected with 50 μl of an emulsion containing 100 μg of chicken collagen type II (Sigma-Aldrich Co., St. Louis, MO, USA) dissolved in 25 μl of acetic acid and 25 μl of a complete Freund's adjuvant (Sigma-Aldrich Co.) at the base of the tail thereof, and the day of the first immunization was defined as day 0. On Day 14, the mice were injected with a booster of 50 μl of the emulsion having the same composition as the first immunization, except that an incomplete Freund's adjuvant was used. All mice were randomly divided into 4 experimental groups: non-treated normal group (NOR, n=4), collagen-injected and vehicle-treated arthritis control group (CIA, n=4), 2 mg/kg TIM1c-treated arthritis group (TIM1c 2 mg/ml, n=4), and 20 mg/kg TIM1c-treated arthritis group (TIM1c 20 mg/ml, n=5). The treatment groups were orally fed 2 or 20 mg/kg of TIM1c every 2 days from day 15 to day 60 after the first immunization.
In order to evaluate the progression of arthritis in CIA mice, four parameters (body weight, paw volume increase, squeaking score, and arthritis score) were measured after the first immunization with collagen and complete Freund's adjuvant. The body weights of the mice were measured using a digital balance (Mettler-Toledo Inc., Columbus, OH, USA). In order to assess nociception and hyperalgesia, ankle pain was evaluated on a scale measuring squeaking. Squeaking included any vocalization evoked by ankle flexion and extension. The flexion and extension procedures were repeated 10 times every 5 seconds, and the mouse was rated 0 (no vocalization) or 1 (vocalization) for each hindlimb thereof. The total number of vocalizations detected by the observer was counted as the number of squeaks. Paw swelling was measured by volume displacement of an electrolyte solution using a water-displacement plethysmometer (Ugo-Basil Biological Research Apparatus Co., Comerio-Varese, Italy), as previously described (Bang J. S. et al. (2009) Arthritis Res. Ther. 11(2):R49). The hindlimbs were immersed to the line of the hairy skin, and the volumes thereof were read on a digital display. The increase in paw volume was represented compared to day 0, which was defined as zero. […]

[6] = HDFs, 1, 10, 50 and 100 μM, 24 hours

T2 sequence (P01375 77-233 limits assumed): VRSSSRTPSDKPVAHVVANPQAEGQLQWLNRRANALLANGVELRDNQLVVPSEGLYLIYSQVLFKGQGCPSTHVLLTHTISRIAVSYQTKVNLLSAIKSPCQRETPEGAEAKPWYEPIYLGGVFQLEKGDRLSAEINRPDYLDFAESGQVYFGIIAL
Chain of TNF-α/TNFR1 interface (P01375 77-233 limits assumed, species assumed): as the sequence (P01375 77-233 limits assumed) above

## Cc1cc2occ(CN(C)CCN(C)Cc3cn(-c4cccc(C(F)(F)F)c4)c4ccccc34)c(=O)c2cc1C [SPD304, reference compound]
[1]
  cytotoxicity (cell viability, MTT assay): showed cytotoxicity; also recorded: severe cytotoxicity at high concentrations; also recorded: strong cytotoxicity at concentrations exceeding 1 μM; also recorded: significant cytotoxic effects were exhibited at concentrations of 10, 50 or 100 μM
[2]
  inhibition of rmTNF-α-mediated proapoptotic pathway / cell death: did not reduce the death of these cells at concentrations other than 1 μM
[3]; HDFs, 10 μM
  secretion of hIL-8 at 10 μM: increase the secretion of cytokines
[3]; HDFs, 50 μM
  secretion of hIL-8 at 50 μM: completely inhibits
[3]; [6]
  inhibition of TNF-α-mediated hIL-8 secretion: weak at 10 μM but stronger at 1 μM
[4]; HDFs, 10 μM
  secretion of hIL-6 at 10 μM: increase the secretion of cytokines
[4]; HDFs, 50 μM
  secretion of hIL-6 at 50 μM: completely inhibited
[4]; [6]
  inhibition of TNF-α-mediated hIL-6 secretion: weak at 10 μM but stronger at 1 μM

## C=C1C(=O)O[C@@H]2C[C@@H](C)[C@]34C[C@]5(C(=O)O[C@H]6C[C@@]7(C)C(=C[C@H]65)[C@H](C)CC[C@@H]7O)[C@H](C(C)=C3C[C@@H]12)[C@@H]4OC(C)=O [Japonicone A]
TNF-α/TNFR1 interface
  IC50: ~10 µM

## CCCNc1nc(-c2cc(C)n(NC(=O)c3nn(C)c(=O)c4ccccc34)c2C)cs1.Cl [TIM1c, N-{2,5-dimethyl-3-[2-(propylamino)-1,3-thiazol-4-yl]pyrrol-l-yl}-3-methyl-4-oxophthalazine-1-carboxamide hydrochloride]
[1]
  cytotoxicity (cell viability, MTT assay): negligible cytotoxicity
[3]; HDFs, 1, 10 and 50 μM, rhTNF-α 1 ng/ml, 24 hours, hydrochloride
  inhibition of TNF-induced hIL-8, TIM1 derivatives compared with TIM1: concentration-dependent inhibition of TNF-induced hIL-8 greater than that of TIM1; also recorded: maximally inhibited
[5]; 2 mg/kg/2 days
  disease severity at low dose: slightly ameliorate disease severity
[5]; 20 mg/kg/2 days
  induction of RA at high dose: significantly decreased to such an extent that the limbs of the animals were almost identical to those of the normal group
[5]; 2 or 20 mg/kg every 2 days
  body weight: weight gain
  paw volume: paw volume decrease
[5]; 2 or 20 mg/kg every 2 days, day 15 to day 60
  RA symptoms versus CIA mice: Dose-dependent amelioration
[5]; CIA mice
  number of squeaks: inhibited
[5]; treatment group versus CIA
  arthritis index (clinical score): significantly decreased

## Erythrosine B
TNF-α/TNFR1 interface
  IC50: 5 µM

— US12558354B2, “Tumor necrosis factor alpha (TNF-alpha) small molecule inhibitor” (AJOU UNIVERSITY INDUSTRY-ACADEMIC COOPERATION FOUNDATION, priority 2019, dated 2026)
